# Reference: patent US20120220581A1, “IMIDAZO[1,2-b]PYRIDAZINE DERIVATIVES AND THEIR USE AS PDE10 INHIBITORS” (Janssen-Cilag, S.A., priority 2009, published 2012)
# Assays:
# [1] = biological target: T1, Rat recombinant PDE10A (rPDE10A2) (Rattus norvegicus, UniProt Q9QYJ6); assay: In vitro assay PDE10A (SPA, 3H-cAMP); assay type: biochemical; conditions: pIC50 corresponds to the −log IC50 expressed in mol/L; read-out: PDE10A2 pIC50 (converted)
# T1 construct: inferred from the Ni metal chelate purification; made in house; host or cells: Sf9 insect cells (baculovirus)
# T1 sequence (Q9QYJ6 1-794): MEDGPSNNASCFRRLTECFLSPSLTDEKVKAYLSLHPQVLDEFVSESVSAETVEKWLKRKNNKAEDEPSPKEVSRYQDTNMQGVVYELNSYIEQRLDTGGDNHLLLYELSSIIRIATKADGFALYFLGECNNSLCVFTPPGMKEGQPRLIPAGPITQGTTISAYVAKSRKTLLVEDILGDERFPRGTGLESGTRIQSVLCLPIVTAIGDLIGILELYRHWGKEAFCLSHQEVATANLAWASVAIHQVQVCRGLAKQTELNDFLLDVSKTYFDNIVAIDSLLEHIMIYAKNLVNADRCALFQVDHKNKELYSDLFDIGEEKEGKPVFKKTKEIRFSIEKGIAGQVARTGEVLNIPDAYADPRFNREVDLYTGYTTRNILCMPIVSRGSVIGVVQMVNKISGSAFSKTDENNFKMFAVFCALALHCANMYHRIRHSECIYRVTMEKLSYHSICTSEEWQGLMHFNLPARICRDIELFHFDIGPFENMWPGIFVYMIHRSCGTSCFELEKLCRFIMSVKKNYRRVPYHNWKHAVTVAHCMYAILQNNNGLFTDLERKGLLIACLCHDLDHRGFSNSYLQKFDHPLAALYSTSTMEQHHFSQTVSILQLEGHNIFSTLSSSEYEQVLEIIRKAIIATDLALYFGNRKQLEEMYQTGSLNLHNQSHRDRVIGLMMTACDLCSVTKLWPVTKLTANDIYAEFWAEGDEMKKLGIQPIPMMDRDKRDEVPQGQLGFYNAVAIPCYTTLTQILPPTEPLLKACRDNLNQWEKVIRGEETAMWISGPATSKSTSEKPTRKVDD
# Procedure: Rat recombinant PDE10A (rPDE10A2) was expressed in Sf9 cells using a recombinant rPDE10A baculovirus construct. Cells were harvested after 48 h of infection and the rPDE10A protein was purified by metal chelate chromatography on Ni-sepharose 6FF. Tested compounds were dissolved and diluted in 100% DMSO to a concentration 100 fold of the final concentration in the assay. Compound dilutions (0.4 μl) were added in 384 well plates to 20 μl of incubation buffer (50 mM Tris pH 7.8, 8.3 mM MgCl2, 1.7 mM EGTA). 10 μl of rPDE10A enzyme in incubation buffer was added and the reaction was started by addition of 10 μl substrate to a final concentration of 60 nM cAMP and 0.008 μCi ^3H-cAMP. The reaction was incubated for 60 minutes at room temperature. […] After sedimentation of the beads during 30 minutes the radioactivity was measured in a Perkin Elmer Topcount scintillation counter and results were expressed as cpm. For blanc values the enzyme was omitted from the reaction and replaced by incubation buffer. Control values were obtained by addition of a final concentration of 1% DMSO instead of compound. The same assay principle is applied for the measurement of the affinity of the compound for other members of the PDE family with appropriate modifications in incubation buffer, substrate concentration, incubation time and stop solution.
# [2] = test system: apomorphine-induced stereotypy in rats; assay: Apomorphine-induced stereotypy in rats (APO); assay type: in vivo; conditions: Rattus norvegicus, n.d.: found not active at threshold dose 2.5 mg/kg or 10 mg/kg (a)
# Procedure: Apomorphine (1.0 mg/kg, i.v.)-induced stereotypy (compulsive sniffing, licking, chewing) was scored every 5 min over the first hour after injection of apomorphine, following a 1 hour interval pre-treatment with the test compound. The score system was: (3) pronounced, (2) moderate, (1) slight, and (0) absent.
# [3] = po, * not soluble, tested orally as a suspension
Compound,IC50 [1],ED50 ([2]; not further tested),"ED50 [2, 3]"
"CCc1ccc(-c2c(C)nc3c(-c4ccncc4)cc(C)nn23)cn1 [compound 88, 3-(6-ethyl-3-pyridinyl)-2,6-dimethyl-8-(4-pyridinyl)-imidazo[1,2-b]pyridazine]",115 nM,> 2.5 mg/kg,–
"Cc1cc(-c2ccncc2)c2nc(C)c(-c3ccc(N4CCNCC4)nc3)n2n1 [compound 96, 2,6-dimethyl-3-[6-(1-piperazinyl)-3-pyridinyl]-8-(4-pyridinyl)-imidazo[1,2-b]pyridazine]",186 nM,> 2.5 mg/kg,–
"Cc1nc2c(-c3ccncc3)ccnn2c1-c1ccc(N2CCNCC2)nc1 [compound 97, 2-methyl-3-[6-(1-piperazinyl)-3-pyridinyl]-8-(4-pyridinyl)-imidazo[1,2-b]pyridazine]",141 nM,> 2.5 mg/kg,–
"c1cc(N2CCOCC2)c2nc(C3CC3)c(-c3ccc(N4CCNCC4)nc3)n2n1 [compound 98, 2-cyclopropyl-8-(4-morpholinyl)-3-[6-(1-piperazinyl)-3-pyridinyl]-imidazo[1,2-b]pyridazine]",110 nM,> 2.5 mg/kg,–
"Cc1nc2c(-c3ccncc3)cc(C3CC3)nn2c1-c1ccc(N2CCNCC2)nc1 [compound 99, 6-cyclopropyl-2-methyl-3-[6-(1-piperazinyl)-3-pyridinyl]-8-(4-pyridinyl)-imidazo[1,2-b]pyridazine]",302 nM,> 2.5 mg/kg,–
"Cc1cc(-c2ccncc2)c2nc(C3CC3)c(-c3ccc(N4CCNCC4)nc3)n2n1 [compound 101, 2-cyclopropyl-6-methyl-3-[6-(1-piperazinyl)-3-pyridinyl]-8-(4-pyridinyl)-imidazo[1,2-b]pyridazine]",178 nM,> 2.5 mg/kg,–
"c1cc(-c2ccnn3c(-c4ccc(N5CCNCC5)nc4)c(C4CC4)nc23)ccn1 [compound 102, 2-cyclopropyl-3-[6-(1-piperazinyl)-3-pyridinyl]-8-(4-pyridinyl)-imidazo[1,2-b]pyridazine]",44.7 nM,> 2.5 mg/kg,–
"CCc1ccc(-c2c(C)nc3c(N4CCOCC4)cc(C4CC4)nn23)cn1 [compound 107, 6-cyclopropyl-3-(6-ethyl-3-pyridinyl)-2-methyl-8-(4-morpholinyl)-imidazo[1,2-b]pyridazine]",269 nM,> 2.5 mg/kg,–
"CCc1ccc(-c2cnc3c(N4CCOCC4)ccnn23)cn1 [compound 109, 3-(6-ethyl-3-pyridinyl)-8-(4-morpholinyl)-imidazo[1,2-b]pyridazine]",251 nM,> 2.5 mg/kg,–
"Cc1nc2c(-c3ccncc3)ccnn2c1-c1ccc(C2CC2)nc1 [compound 111, 3-(6-cyclopropyl-3-pyridinyl)-2-methyl-8-(4-pyridinyl)-imidazo[1,2-b]pyridazine]",97.7 nM,> 2.5 mg/kg,–
"COCCn1cc(-c2c(C3CC3)nc3c(N4CCOCC4)ccnn23)cn1 [compound 119, 2-cyclopropyl-3-[1-(2-methoxyethyl)-1H-pyrazol-4-yl]-8-(4-morpholinyl)-imidazo[1,2-b]pyridazine]",61.7 nM,–,> 10 mg/kg
"COCCn1cc(-c2c(C(C)C)nc3c(N4CCOCC4)ccnn23)cn1 [compound 120, 3-[1-(2-methoxyethyl)-1H-pyrazol-4-yl]-2-(1-methylethyl)-8-(4-morpholinyl)-imidazo[1,2-b]pyridazine]",692 nM,> 10 mg/kg,–
"COCCn1cc(-c2c(C(F)(F)F)nc3c(-c4ccncc4)ccnn23)cn1 [compound 122, 3-[1-(2-methoxyethyl)-1H-pyrazol-4-yl]-8-(4-pyridinyl)-2-(trifluoromethyl)-imidazo[1,2-b]pyridazine]",30.2 nM,> 2.5 mg/kg,–
"COC(C)(C)Cn1cc(-c2c(C)nc3c(-c4ccncc4)ccnn23)cn1 [compound 123, 3-[1-(2-methoxy-2-methylpropyl)-1H-pyrazol-4-yl]-2-methyl-8-(4-pyridinyl)-imidazo[1,2-b]pyridazine]",27.5 nM,> 2.5 mg/kg,–
"COCCn1cc(-c2c(C)nc3c(-c4ccncc4)cc(C4CC4)nn23)cn1 [compound 126, 6-cyclopropyl-3-[1-(2-methoxyethyl)-1H-pyrazol-4-yl]-2-methyl-8-(4-pyridinyl)-imidazo[1,2-b]pyridazine]",50.1 nM,> 2.5 mg/kg,–

# The next lines start with results.
IC50 [1],Compound,ED50 ([2]; not further tested),"ED50 [2, 3]"
132 nM,"Cc1nc2c(N3CCOCC3)ccnn2c1-c1ccc(N2CCCC2)nc1 [compound 89, 2-methyl-8-(4-morpholinyl)-3-[6-(1-pyrrolidinyl)-3-pyridinyl]-imidazo[1,2-b]pyridazine]",–,> 2.5 mg/kg
67.6 nM,"Cc1nc2c(N3CCOCC3)ccnn2c1-c1ccc(NC(C)C)nc1 [compound 90, N-(1-methylethyl)-5-[2-methyl-8-(4-morpholinyl)imidazo[1,2-b]pyridazin-3-yl]-2-pyridinamine]",> 2.5 mg/kg,–
57.5 nM,"Cc1nc2c(N3CCOCC3)ccnn2c1-c1ccnc(N2CCCC2)c1 [compound 92, 2-methyl-8-(4-morpholinyl)-3-[2-(1-pyrrolidinyl)-4-pyridinyl]-imidazo[1,2-b]pyridazine]",> 2.5 mg/kg,–
25.1 nM,"Cc1nc2c(N3CCOCC3)ccnn2c1-c1ccnc(NC(C)C)c1 [compound 93, N-(1-methylethyl)-4-[2-methyl-8-(4-morpholinyl)imidazo[1,2-b]pyridazin-3-yl]-2-pyridinamine]",> 2.5 mg/kg,–
257 nM,"Cc1nc2c(N3CCOCC3)ccnn2c1-c1ccnc(N2CCNCC2)c1 [compound 103, 2-methyl-8-(4-morpholinyl)-3-[2-(1-piperazinyl)-4-pyridinyl]-imidazo[1,2-b]pyridazine]",> 2.5 mg/kg,–
53.7 nM,"Cc1nc2c(N3CCOCC3)ccnn2c1-c1ccc(CC(C)C)nc1 [compound 104, 2-methyl-3-[6-(2-methylpropyl)-3-pyridinyl]-8-(4-morpholinyl)-imidazo[1,2-b]pyridazine]",> 2.5 mg/kg,–
25.1 nM,"Cc1nc2c(N3CCOCC3)ccnn2c1-c1ccnc(CC(C)C)c1 [compound 105, 2-methyl-3-[2-(2-methylpropyl)-4-pyridinyl]-8-(4-morpholinyl)-imidazo[1,2-b]pyridazine]",> 2.5 mg/kg,–
66.1 nM,"CCc1ccc(-c2c(C3CC3)nc3c(N4CCOCC4)ccnn23)cn1 [compound 106, 2-cyclopropyl-3-(6-ethyl-3-pyridinyl)-8-(4-morpholinyl)-imidazo[1,2-b]pyridazine]",> 2.5 mg/kg,–
155 nM,"CCc1ccc(-c2c(C)nc3c(N4CCOCC4)cc(C)nn23)cn1 [compound 108, 3-(6-ethyl-3-pyridinyl)-2,6-dimethyl-8-(4-morpholinyl)-imidazo[1,2-b]pyridazine]",> 2.5 mg/kg,–
158 nM,"CO[C@H]1CCN(c2ccc(-c3c(C)nc4c(N5CCOCC5)ccnn34)cn2)C1 [compound 113, 3-[6-[(3S)-3-methoxy-1-pyrrolidinyl]-3-pyridinyl]-2-methyl-8-(4-morpholinyl)-imidazo[1,2-b]pyridazine]",> 2.5 mg/kg,–
35.5 nM,"Cc1nc2c(N3CCOCC3)ccnn2c1-c1cnn(Cc2cccnc2)c1 [compound 115, 2-methyl-8-(4-morpholinyl)-3-[1-(3-pyridinylmethyl)-1H-pyrazol-4-yl]-imidazo[1,2-b]pyridazine]",–,> 10 mg/kg
132 nM,"Cc1nc2c(N3CCOCC3)ccnn2c1-c1cn[nH]c1 [compound 116, 2-methyl-8-(4-morpholinyl)-3-(1H-pyrazol-4-yl)-imidazo[1,2-b]pyridazine]",–,> 10 mg/kg
